Key:
Cytochrome P450 2B6 = target: T1, Cytochrome P450 2B6 (Homo sapiens, UniProt P20813); experiment: Inhibition of CYP2B6 (unknown origin); type: ADME
T1 sequence (P20813 whole entry): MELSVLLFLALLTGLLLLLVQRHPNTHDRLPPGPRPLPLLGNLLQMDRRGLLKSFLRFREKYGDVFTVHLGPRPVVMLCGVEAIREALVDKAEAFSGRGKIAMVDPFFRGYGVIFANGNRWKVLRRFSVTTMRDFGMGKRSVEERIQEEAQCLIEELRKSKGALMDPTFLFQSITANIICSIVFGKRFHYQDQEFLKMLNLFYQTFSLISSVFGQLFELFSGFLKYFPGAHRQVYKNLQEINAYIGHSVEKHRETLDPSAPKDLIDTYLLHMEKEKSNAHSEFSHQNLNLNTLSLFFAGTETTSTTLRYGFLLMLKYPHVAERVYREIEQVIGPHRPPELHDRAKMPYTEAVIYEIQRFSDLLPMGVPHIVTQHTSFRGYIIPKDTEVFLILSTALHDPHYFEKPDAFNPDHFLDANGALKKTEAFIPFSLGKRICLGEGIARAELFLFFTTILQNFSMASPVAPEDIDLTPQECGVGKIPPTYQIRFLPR

[1] = Half life in rat liver microsomes; type: ADME, Microsome
PXR = target: T2, PXR (Homo sapiens, UniProt O75469); experiment: Transactivation of PXR (unknown origin) expressed in human HepG2 cells assessed as maximum receptor activation response relative to control; type: cell-based; conditions: human HepG2 cells that express PXR, read-out: %max
T2 sequence (O75469 whole entry): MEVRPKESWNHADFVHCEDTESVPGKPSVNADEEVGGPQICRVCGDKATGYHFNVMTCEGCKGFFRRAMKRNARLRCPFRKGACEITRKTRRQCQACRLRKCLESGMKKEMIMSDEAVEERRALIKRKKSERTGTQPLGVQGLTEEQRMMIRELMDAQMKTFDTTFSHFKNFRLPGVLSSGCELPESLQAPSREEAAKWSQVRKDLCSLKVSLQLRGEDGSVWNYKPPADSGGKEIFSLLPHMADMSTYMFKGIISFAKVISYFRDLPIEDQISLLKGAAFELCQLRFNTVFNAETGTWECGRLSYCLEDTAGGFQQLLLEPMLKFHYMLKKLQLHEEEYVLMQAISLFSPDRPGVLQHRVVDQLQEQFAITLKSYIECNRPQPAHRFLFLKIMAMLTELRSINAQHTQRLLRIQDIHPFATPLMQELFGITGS

[2] = target: T3, Oxysterols receptor LXR-beta (Homo sapiens, UniProt P55055); experiment: Transactivation of human GAL4-fused LXRbeta expressed in African green monkey CV1 cells; type: cell-based
T3 sequence (P55055 whole entry): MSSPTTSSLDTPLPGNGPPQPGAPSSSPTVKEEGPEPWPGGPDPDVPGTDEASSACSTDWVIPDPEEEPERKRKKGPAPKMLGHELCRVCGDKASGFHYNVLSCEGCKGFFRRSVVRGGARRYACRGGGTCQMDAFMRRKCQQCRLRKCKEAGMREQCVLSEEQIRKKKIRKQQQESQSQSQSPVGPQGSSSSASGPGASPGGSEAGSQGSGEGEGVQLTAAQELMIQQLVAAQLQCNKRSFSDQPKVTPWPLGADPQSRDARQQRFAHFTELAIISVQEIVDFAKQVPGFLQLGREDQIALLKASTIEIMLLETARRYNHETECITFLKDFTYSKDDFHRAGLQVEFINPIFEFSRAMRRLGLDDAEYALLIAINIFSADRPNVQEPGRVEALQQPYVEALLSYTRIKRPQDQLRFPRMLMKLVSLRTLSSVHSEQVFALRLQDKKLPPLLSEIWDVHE

Cytochrome P450 2C8 = target: T4, Cytochrome P450 2C8 (Homo sapiens, UniProt P10632); experiment: Inhibition of CYP2C8 (unknown origin); type: ADME
T4 sequence (P10632 whole entry): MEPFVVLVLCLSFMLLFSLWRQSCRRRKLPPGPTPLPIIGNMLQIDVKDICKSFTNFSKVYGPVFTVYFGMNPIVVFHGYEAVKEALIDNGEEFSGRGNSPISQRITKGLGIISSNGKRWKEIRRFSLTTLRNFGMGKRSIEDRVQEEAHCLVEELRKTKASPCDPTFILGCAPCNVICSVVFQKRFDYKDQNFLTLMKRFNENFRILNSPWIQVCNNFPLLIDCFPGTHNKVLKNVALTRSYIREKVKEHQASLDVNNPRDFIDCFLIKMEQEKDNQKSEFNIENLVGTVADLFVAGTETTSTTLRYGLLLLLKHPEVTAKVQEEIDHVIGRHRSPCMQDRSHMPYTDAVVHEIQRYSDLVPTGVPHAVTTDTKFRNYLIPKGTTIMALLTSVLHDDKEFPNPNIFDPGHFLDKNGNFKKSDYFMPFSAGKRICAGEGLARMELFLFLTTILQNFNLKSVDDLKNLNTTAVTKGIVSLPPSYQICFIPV

[3] = target: T5, Nuclear receptor ROR-alpha (Homo sapiens, UniProt P35398); experiment: Inverse agonist activity at human Gal4-fused RORalpha LBD (272 to 556 residues) expressed in human Jurkat cells measured after 18 hrs by steady-glo luciferase reporter gene assay; type: cell-based
T5 sequence (P35398 whole entry): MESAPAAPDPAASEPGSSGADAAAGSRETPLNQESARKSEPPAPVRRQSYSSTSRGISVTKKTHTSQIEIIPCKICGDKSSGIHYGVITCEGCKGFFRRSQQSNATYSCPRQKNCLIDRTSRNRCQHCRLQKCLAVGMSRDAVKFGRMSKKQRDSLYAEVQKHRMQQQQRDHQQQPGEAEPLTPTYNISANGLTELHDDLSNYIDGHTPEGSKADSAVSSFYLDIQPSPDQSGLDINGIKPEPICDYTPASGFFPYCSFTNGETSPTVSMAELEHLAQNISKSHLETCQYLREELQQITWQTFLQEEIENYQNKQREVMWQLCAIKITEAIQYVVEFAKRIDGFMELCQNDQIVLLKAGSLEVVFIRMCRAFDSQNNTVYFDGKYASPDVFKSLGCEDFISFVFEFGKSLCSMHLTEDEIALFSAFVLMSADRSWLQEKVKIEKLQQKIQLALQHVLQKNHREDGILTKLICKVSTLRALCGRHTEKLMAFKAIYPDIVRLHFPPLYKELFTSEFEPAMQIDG

[4] = Half life in mouse liver microsomes; type: ADME, Microsome

| IC50 (Cytochrome P450 2B6) | half-life [1] | Emax (PXR) | EC50 [2] | IC50 (Cytochrome P450 2C8) | EC50 [3] | half-life [4] | Compound |
| --- | --- | --- | --- | --- | --- | --- | --- |
| > 10 µM | > 2 h | 6% | > 7.5 µM | > 10 µM | > 40 µM | > 2 h | O=C(O)C12CCC(C(=O)N3CC[C@](c4ccc(C(F)(C(F)(F)F)C(F)(F)F)cc4)(S(=O)(=O)c4ccc(F)cc4)C3)(CC1)CC2 |
| > 10 µM | > 2 h | 6% | > 7.5 µM | > 10 µM | > 40 µM | > 2 h | CC[C@]1(C(=O)N2CC[C@](c3ccc(C(F)(C(F)(F)F)C(F)(F)F)cc3)(S(=O)(=O)c3ccc(F)cc3)C2)CC[C@H](C(=O)O)CC1 |

— ChEMBL document CHEMBL4387773, “Identification of potent, selective and orally bioavailable phenyl ((R)-3-phenylpyrrolidin-3-yl)sulfone analogues as RORγt inverse agonists” (Bioorg Med Chem Lett, 2019)
